In patent publication EP0080051A2, “Heterocyclic compounds and antibacterial and antifungal compositions containing the same as active ingredients” (MEIJI SEIKA KAISHA LTD., priority 1981, dated 1983):
Converted amounts (≈) assume the structure as drawn. Read-outs that look alike come from different tables or passages of the source.

Assays:
[1] = tested on: Trichophyton mentagrophytes; test: Therapeutic experiment: treatment of trichophytosis in guinea pigs; type: in vivo; settings: 1 % preparation, 0.25 ml once per day over 8 consecutive days, visual observation of diseased skin
[2] = mouse, p.o.
[3] = tested on: Staphylococcus aureus 209P JC-1; test: Antibacterial activity (in medicinal field), MIC; type: cell-based; settings: read-out: Minimal Inhibitory Conc. (MIC)
[4] = tested on: Staphylococcus epidermidis ATCC 14990; test: Antibacterial activity (in medicinal field), MIC; type: cell-based; settings: ATCC14990, read-out: Minimal Inhibitory Conc. (MIC)
[5] = tested on: Staphylococcus faecalis ATCC 8043; test: Antibacterial activity (in medicinal field), MIC; type: cell-based; settings: ATCC8043, read-out: Minimal Inhibitory Conc. (MIC)
[6] = tested on: Bacillus anthracis No. 109; test: microbe, parasite or virus in culture; type: cell-based; settings: NO.109, read-out: Minimal Inhibitory Conc. (MIC)
[7] = tested on: Escherichia coli NIHJ JC-2; test: Antibacterial activity (in medicinal field), MIC; type: cell-based; settings: NIHJJC2, read-out: Minimal Inhibitory Conc. (MIC)
[8] = tested on: Citrobacter freundii GN-346; test: Antibacterial activity (in medicinal field), MIC; type: cell-based; settings: GN346, read-out: Minimal Inhibitory Conc. (MIC)
[9] = tested on: Salmonella typhi O-901-W; test: Antibacterial activity (in medicinal field), MIC; type: cell-based; settings: Salmonella enterica, read-out: Minimal Inhibitory Conc. (MIC)
[10] = tested on: Shigella sonnei EW 33 Type I; test: Antibacterial activity (in medicinal field), MIC; type: cell-based; settings: EW33TYPEI, read-out: Minimal Inhibitory Conc. (MIC)
[11] = tested on: Klebsiella pneumoniae PCI-602; test: Antibacterial activity (in medicinal field), MIC; type: cell-based; settings: PCI602, read-out: Minimal Inhibitory Conc. (MIC)
[12] = tested on: Proteus vulgaris OX-19; test: Antibacterial activity (in medicinal field), MIC; type: cell-based; settings: OX19, read-out: Minimal Inhibitory Conc. (MIC)
[13] = tested on: Serratia marcescens MB-3848; test: Antibacterial activity (in medicinal field), MIC; type: cell-based; settings: MB3848, read-out: Minimal Inhibitory Conc. (MIC)
[14] = tested on: Pseudomonas cepacia M-0527; test: Antibacterial activity (in medicinal field), MIC; type: cell-based; settings: Burkholderia cepacia, M0527, read-out: Minimal Inhibitory Conc. (MIC)

O=[N+]([O-])c1ccn(CC(I)=C(I)I)c1 [1-(2',3',3'-triiodoallyl)-3-nitropyrrole]
Therapeutic Effect: Desquamation [1]: effective
Therapeutic Effect: Redness [1]: prominently effective
Therapeutic Effect: Thickening [1]: effective
Acute Toxicity (survival) ([2]; Dosage 100 mg/kg): All animals survived
Acute Toxicity (survival) ([2]; Dosage 200 mg/kg): All animals survived
Acute Toxicity (survival) ([2]; Dosage 800 mg/kg): All animals survived

Clc1ccccc1C(c1ccccc1)(c1ccccc1)n1ccnc1 [chlotri-mazol, 1-(O-chloro-d, a-diphenylbenzyl) imidazole, reference compound]
Therapeutic Effect: Desquamation [1]: effective
Therapeutic Effect: Redness [1]: in-effective
Therapeutic Effect: Thickening [1]: effective

O=[N+]([O-])c1cn(CC(I)=C(I)I)c(Cl)c1Cl [1-(2',3',3'-triiodoallyl)-2,3-dichloro-4-nitropyrrole]
MIC [3]: 31.2 µg/mL (≈ 52.1 µM)
MIC [4]: 31.2 µg/mL (≈ 52.1 µM)
MIC [5]: 31.2 µg/mL (≈ 52.1 µM)
MIC [6]: 31.2 µg/mL (≈ 52.1 µM)
MIC [7]: 12.5 µg/mL (≈ 20.9 µM)
MIC [8]: 12.5 µg/mL (≈ 20.9 µM)
MIC [9]: 12.5 µg/mL (≈ 20.9 µM)
MIC [10]: 6.25 µg/mL (≈ 10.4 µM)
MIC [11]: 25 µg/mL (≈ 41.8 µM)
MIC [12]: 6.25 µg/mL (≈ 10.4 µM)
MIC [13]: 6.25 µg/mL (≈ 10.4 µM)
MIC [14]: 6.25 µg/mL (≈ 10.4 µM)
Therapeutic Effect: Desquamation [1]: effective
Therapeutic Effect: Redness [1]: prominently effective
Therapeutic Effect: Thickening [1]: effective
Acute Toxicity (survival) ([2]; Dosage 100 mg/kg): All animals survived
Acute Toxicity (survival) ([2]; Dosage 200 mg/kg): All animals survived
Acute Toxicity (survival) ([2]; Dosage 800 mg/kg): All animals survived

O=[N+]([O-])c1cn(CC#CI)c(Cl)c1Cl [1-(1'-iodopropyn-3'-yl)-2,3-dichloro-4-nitropyrrole]
Acute Toxicity (survival) ([2]; Dosage 200 mg/kg): All animals survived
Acute Toxicity (survival) ([2]; Dosage 500 mg/kg): All animals survived
Acute Toxicity (survival) ([2]; Dosage 800 mg/kg): All animals survived

O=[N+]([O-])c1cc(Cl)n(CC(I)=C(I)I)c1 [1-(2',3',3'-triiodoallyl)-2-chloro-4-nitropyrrole]
MIC [3]: 6.25 µg/mL (≈ 11.1 µM)
MIC [4]: 6.25 µg/mL (≈ 11.1 µM)
MIC [5]: 6.25 µg/mL (≈ 11.1 µM)
MIC [6]: 6.25 µg/mL (≈ 11.1 µM)
MIC [7]: 12.5 µg/mL (≈ 22.2 µM)
MIC [8]: 12.5 µg/mL (≈ 22.2 µM)
MIC [9]: 12.5 µg/mL (≈ 22.2 µM)
MIC [10]: 12.5 µg/mL (≈ 22.2 µM)
MIC [11]: 25 µg/mL (≈ 44.3 µM)
MIC [12]: 12.5 µg/mL (≈ 22.2 µM)
MIC [13]: 12.5 µg/mL (≈ 22.2 µM)
MIC [14]: 12.5 µg/mL (≈ 22.2 µM)

O=[N+]([O-])c1nccn1CC(I)=C(I)I [1-(2',3',3'-triiodoallyl)-2-nitroimidazole]
MIC [3]: 12.5 µg/mL (≈ 23.5 µM)
MIC [4]: 12.5 µg/mL (≈ 23.5 µM)
MIC [5]: 25 µg/mL (≈ 47.1 µM)
MIC [6]: 6.25 µg/mL (≈ 11.8 µM)
MIC [7]: 25 µg/mL (≈ 47.1 µM)
MIC [8]: 3.12 µg/mL (≈ 5.88 µM)
MIC [9]: 12.5 µg/mL (≈ 23.5 µM)
MIC [10]: 3.12 µg/mL (≈ 5.88 µM)
MIC [11]: 6.25 µg/mL (≈ 11.8 µM)
MIC [12]: 6.25 µg/mL (≈ 11.8 µM)
MIC [13]: 25 µg/mL (≈ 47.1 µM)
MIC [14]: 3.12 µg/mL (≈ 5.88 µM)

O=[N+]([O-])c1c(Cl)cccc1-c1c[nH]cc1Cl [pyrrolni-trin, 3-chloro-4-(2'-nitro-3'-chlorophenyl)pyrrole, reference compound]
Therapeutic Effect: Desquamation [1]: in-effective
Therapeutic Effect: Redness [1]: in-effective
Therapeutic Effect: Thickening [1]: effective

IC(I)=C(I)Cn1ccnc1 [1-(2',3',3'-triiodoallyl)-imidazole, 1-(2',3',3'-Triiodoallyl)imidazole]
MIC [3]: 12.5 µg/mL (≈ 25.7 µM)
MIC [4]: 12.5 µg/mL (≈ 25.7 µM)
MIC [5]: 25 µg/mL (≈ 51.5 µM)
MIC [6]: 12.5 µg/mL (≈ 25.7 µM)
MIC [7]: 12.5 µg/mL (≈ 25.7 µM)
MIC [8]: 12.5 µg/mL (≈ 25.7 µM)
MIC [9]: 12.5 µg/mL (≈ 25.7 µM)
MIC [10]: 6.5 µg/mL (≈ 13.4 µM)
MIC [11]: 12.5 µg/mL (≈ 25.7 µM)
MIC [12]: 12.5 µg/mL (≈ 25.7 µM)
MIC [13]: 12.5 µg/mL (≈ 25.7 µM)
MIC [14]: 6.25 µg/mL (≈ 12.9 µM)

O=[N+]([O-])c1ccn(CC#CI)c1 [1-(1'-iodopro-pyn-3'-yl)-3-nitropyrrole, 1-(1'-iodopropyn-3'-yl)-3-nitropyrrole]
Acute Toxicity (survival) ([2]; Dosage 200 mg/kg): All animals survived
Acute Toxicity (survival) ([2]; Dosage 500 mg/kg): All animals survived
Acute Toxicity (survival) ([2]; Dosage 800 mg/kg): All animals survived
